Data set [1] has as its system venous thrombosis. The experiment in a line: venous thrombosis test in rats (venous stasis under hypercoagulation with factor Xa, Wessler technique), activity via the oral route. Format: in vivo, rat. To be noted: male Wistar rats, dose 6 mg/kg, thrombosis induced 2 h after administration. As to the method: The antithrombotic activity of the compounds according to the invention was studied in vivo in rats by virtue of a test in which a venous thrombosis is reproduced. The venous thrombosis was induced according to the protocol described in Thromb. Haemost., 1992, 67(1), 176-179. The activity via the oral route was studied according to the procedure described below. The experiment is carried out on non-fasting male Wistar rats weighing from 250 to 280 g and divided into groups of 10 animals each. The test products are administered orally (intubation) in solution or in suspension in a methylcellulose solution (0.5% in water). The concentrations of the compounds are calculated so as to bring about the absorption of an amount of solution of 10 ml/kg orally. A thrombosis is induced at time T after the administration of the product and the thrombus formed is removed and weighed. In order to induce this thrombosis, a venous stasis is brought about under hypercoagulation, according to the technique described by Wessler (J. Applied Physiol., 1959, 943-946), using a solution of activated factor X (Xa), supplied by Biogenic (Montpellier) and comprising a dose of 7.5 nKat/kg, as hypercoagulant. The venous stasis is brought about 10 seconds exactly after the injection of the hypercoagulant. The activity of the test compounds was monitored at various doses, after they had been administered. The thrombosis was induced 2 hours after the administration of the compound. By way of example, the results of the above tests are given in the following table for a few compounds according to the invention (the activity is expressed by the percentage of inhibition of the formation of the thrombus, observed in the presence of the compound according to the invention, with respect to the weight of the thrombus formed in the absence of the compound).

Consider 11 compounds from patent US8013010B2, “5-thioxylopyranose compounds” (Laboratoires Fournier S.A., priority 2006, dated 2011).

`O[C@@H]1[C@@H](O)[C@H](Oc2ccc(-c3cccnc3)cc2)SC[C@H]1O` [Example 6, 4-(3-Pyridinyl)phenyl 5-thio-β-D-xylopyranoside] registered a melting point of 166 °C.
On to `O[C@@H]1[C@@H](O)[C@H](Oc2ccc(-c3ccncc3)cc2)SC[C@H]1O` [Example 8, 4-(4-Pyridinyl)phenyl-5-thio-β-D-xylopyranoside], for which, in data set [1], the “Activity (percentage of inhibition of the formation of the thrombus)” value came to 91%.
As for `O[C@@H]1[C@@H](O)[C@H](Oc2ccc(-c3ccccn3)cc2)SC[C@H]1O` [Example 10, 4-(2-Pyridinyl)phenyl 5-thio-β-D-xylopyranoside], the melting point came to 197 °C. Further, the “Activity (percentage of inhibition of the formation of the thrombus)” value in data set [1] was 86%.
The matching figures for `O[C@@H]1[C@@H](O)[C@H](Oc2cccc(-c3ccccn3)c2)SC[C@H]1O` [Example 12, 3-(2-Pyridinyl)phenyl 5-thio-β-D-xylopyranoside]: 138 to 139 °C and 88%.
On to `O[C@@H]1[C@@H](O)[C@H](Oc2ccccc2-c2ccncc2)SC[C@H]1O` [Example 16, 2-(4-Pyridinyl)phenyl 5-thio-β-D-xylopyranoside], for which the melting point was found to be 134 °C.
In turn, `O[C@@H]1[C@@H](O)[C@H](Oc2ccccc2-c2cccnc2)SC[C@H]1O` [Example 18, 2-(3-Pyridinyl)phenyl 5-thio-β-D-xylopyranoside] showed a melting point of 195 °C.
Take `O[C@@H]1[C@@H](O)[C@H](Oc2cccc(-c3cccnc3)c2)SC[C@H]1O` [Example 22, 3-(3-Pyridinyl)phenyl 5-thio-β-D-xylopyranoside]: the melting point stood at 197 °C. Further, the “Activity (percentage of inhibition of the formation of the thrombus)” value in data set [1] came to 81%.
`O[C@@H]1[C@@H](O)[C@H](Oc2ccc(-c3cccnc3)cc2F)SC[C@H]1O` [Example 24, 2-Fluoro-4-(3-pyridinyl)phenyl 5-thio-β-D-xylopyranoside] returned a melting point of 207 °C.
On to `O[C@@H]1[C@@H](O)[C@H](Oc2cc(F)ccc2-c2ccncc2)SC[C@H]1O` [Example 28, 5-Fluoro-2-(4-pyridinyl)phenyl 5-thio-β-D-xylopyranoside], for which the “Activity (percentage of inhibition of the formation of the thrombus)” value in data set [1] is given as 71%.
In turn, `Cc1ccc(-c2cccc(O[C@@H]3SC[C@@H](O)[C@H](O)[C@H]3O)c2)cn1` [Example 29, 3-(6-Methyl-3-pyridinyl)phenyl 5-thio-β-D-xylopyranoside] displayed a melting point of 177 °C.
Still for that read-out and setting: the result for `COc1ncccc1-c1cccc(O[C@@H]2SC[C@@H](O)[C@H](O)[C@H]2O)c1` [Example 33, 3-(2-Methoxy-3-pyridinyl)phenyl 5-thio-β-D-xylopyranoside] reads 194 °C.

For orientation: melting point means the temperature, or range, at which the solid turns liquid.
